These results are taken from the NIST ThermoML archive (doi:10.1016/j.jct.2013.08.030).

Numbers after ± are expanded uncertainties.

The conditions of data set [1]: 101.33 kPa, Liquid, Vibrating tube method.
Data set [2] can be described thus: activity coefficient (dimensionless); of the first substance listed, at infinite dilution; xn = mol fraction of the nth substance listed. Conditions: 101 kPa, Liquid, Chromatography, x1 = 0.

On to `CCCC[N+]1(C)CCOCC1.N#C[C-](C#N)C#N` [4-butyl-4-methylmorpholinium tricyanomethanide], for which the mass density – broadly, mass per unit of volume – amounted to 1073.6 ± 2.2 kg/m3 in data set [1] (288.15 K); 1067.03 ± 2.2 kg/m3 in data set [1] (298.15 K); 1060.79 ± 2.2 kg/m3 in data set [1] (308.15 K); 1054.69 ± 2.2 kg/m3 in data set [1] (318.15 K); 1048.61 ± 2.1 kg/m3 in data set [1] (328.15 K); 1042.61 ± 2.1 kg/m3 in data set [1] (338.15 K). Also, the mass density in data set [1] (348.15 K) is given as 1036.67 ± 2.1 kg/m3; in data set [1] (358.15 K) it was 1030.77 ± 2.1 kg/m3; in data set [1] (368.15 K) it was 1024.3 ± 2.1 kg/m3.

`C=Cc1ccccc1` [styrene] + CCCC[N+]1(C)CCOCC1.N#C[C-](C#N)C#N: the activity coefficient in data set [2] (318.15 K) amounted to 1.82 ± 0.12; in data set [2] (328.15 K), 1.86 ± 0.13; in data set [2] (338.15 K) it was 1.9 ± 0.13; in data set [2] (348.15 K) it was 1.93 ± 0.13; in data set [2] (358.15 K) it was 1.96 ± 0.13; in data set [2] (368.15 K), 1.99 ± 0.14.

In the case of `C1CCOC1` [tetrahydrofuran] + CCCC[N+]1(C)CCOCC1.N#C[C-](C#N)C#N, the activity coefficient in data set [2] (318.15 K) stood at 1.12 ± 0.07; in data set [2] (328.15 K) it was 1.15 ± 0.07; in data set [2] (338.15 K), 1.17 ± 0.07; in data set [2] (348.15 K) it was 1.18 ± 0.08; in data set [2] (358.15 K), 1.21 ± 0.08; in data set [2] (368.15 K) it was 1.22 ± 0.08.

As for `c1ccsc1` [thiophene] + CCCC[N+]1(C)CCOCC1.N#C[C-](C#N)C#N, the activity coefficient in data set [2] (318.15 K) is 1.01 ± 0.06; in data set [2] (328.15 K), 1.04 ± 0.07; in data set [2] (338.15 K), 1.06 ± 0.07; in data set [2] (348.15 K), 1.08 ± 0.07; in data set [2] (358.15 K), 1.1 ± 0.07; in data set [2] (368.15 K), 1.12 ± 0.07.

Regarding `Cc1ccccc1` [toluene] + CCCC[N+]1(C)CCOCC1.N#C[C-](C#N)C#N, the activity coefficient in data set [2] (318.15 K) was found to be 2.3 ± 0.16; in data set [2] (328.15 K), 2.33 ± 0.16; in data set [2] (338.15 K), 2.36 ± 0.16; in data set [2] (348.15 K) it was 2.38 ± 0.16; in data set [2] (358.15 K), 2.41 ± 0.16; in data set [2] (368.15 K), 2.43 ± 0.17.

For `O` [water] + CCCC[N+]1(C)CCOCC1.N#C[C-](C#N)C#N, the activity coefficient came out at 1.03 ± 0.06 in data set [2] (318.15 K); 0.971 ± 0.061 in data set [2] (328.15 K); 0.916 ± 0.058 in data set [2] (338.15 K); 0.86 ± 0.055 in data set [2] (348.15 K); 0.819 ± 0.053 in data set [2] (358.15 K); 0.78 ± 0.051 in data set [2] (368.15 K).
